Data set [1] in a line: relative permittivity at various frequencies (dimensionless). The conditions noted are these: 303.15 K, 101 kPa, Liquid, Frequency=1 MHz.
A short description of data set [2]: relative permittivity at various frequencies (dimensionless); xn = mol fraction of the nth substance listed. Conditions: 303.15 K, 101 kPa, Liquid, Frequency=1 MHz, Parallel plate capacitor.

± gives the expanded uncertainty stated by the source.

This note sets out measurements from the NIST ThermoML archive (doi:10.1007/s10765-011-1086-8).

With `C1COCCO1` [1,4-dioxane], the relative permittivity in data set [1] (Parallel plate capacitor) is listed as 2.26 ± 0.014.

In the case of `C[S+](C)[O-]` [dimethyl sulfoxide], the relative permittivity in data set [1] turned out to be 46.05 ± 0.28.

Regarding `CN(C)C=O` [dimethylformamide], in data set [1] (Parallel plate capacitor), the relative permittivity stood at 36.55 ± 0.22.

Turning to `CN(C)C=O` [dimethylformamide] + NC=O, in data set [2] (x2 = 0), the relative permittivity worked out at 36.55 ± 0.22.

As to `NC=O` [formamide], the relative permittivity in data set [1] (Parallel plate capacitor) was 106.14 ± 0.64.

Take `NC=O` [formamide] + CN(C)C=O: the relative permittivity was 40.58 ± 0.24 in data set [2] (x1 = 0.122); 45 ± 0.27 in data set [2] (x1 = 0.23); 49.26 ± 0.3 in data set [2] (x1 = 0.327); 53.6 ± 0.32 in data set [2] (x1 = 0.414); 58.17 ± 0.35 in data set [2] (x1 = 0.493); 58.5 ± 0.35 in data set [2] (x1 = 0.5). Further, the relative permittivity was determined as 63.22 ± 0.38 in data set [2] (x1 = 0.565); 67.66 ± 0.41 in data set [2] (x1 = 0.63); 72.58 ± 0.44 in data set [2] (x1 = 0.69); 77.4 ± 0.46 in data set [2] (x1 = 0.745); 82.52 ± 0.5 in data set [2] (x1 = 0.796); 86.95 ± 0.52 in data set [2] (x1 = 0.843). Further, the relative permittivity came out at 91.84 ± 0.55 in data set [2] (x1 = 0.886), 96.1 ± 0.58 in data set [2] (x1 = 0.927), 101.77 ± 0.61 in data set [2] (x1 = 0.965) and 106.14 ± 0.64 in data set [2] (x1 = 1).

For `NC=O` [formamide] + NCCO, the relative permittivity in data set [2] (x1 = 0.144) is given as 36.91 ± 0.22; in data set [2] (x1 = 0.275), 44.61 ± 0.27; in data set [2] (x1 = 0.394) it was 52.04 ± 0.31; in data set [2] (x1 = 0.5), 59.52 ± 0.36; in data set [2] (x1 = 0.503) it was 59.14 ± 0.35; in data set [2] (x1 = 0.603), 66.34 ± 0.4. Further, the relative permittivity came to 74.02 ± 0.44 in data set [2] (x1 = 0.695); 81.77 ± 0.49 in data set [2] (x1 = 0.78); 90.12 ± 0.54 in data set [2] (x1 = 0.859); 97.77 ± 0.59 in data set [2] (x1 = 0.932); 106.14 ± 0.64 in data set [2] (x1 = 1).

As for `O` [water], the relative permittivity in data set [1] (Parallel plate capacitor) is reported as 76.53 ± 0.46.
